This note sets out measurements from a melting point compilation (Tetko et al.; mined from patent text by program, amines drawn as free bases though some values may be those of a salt).

`O=C(O)CCC(Oc1cccc(OCc2ccccc2)c1)c1ccccc1` (racemic) yielded a melting point of 100 to 104 °C.

With `COc1ccc(C2=NN(Cc3ccccc3)C(=O)[C@H]3CC=CC[C@@H]23)cc1OC` (relative stereo), the melting point is 133 to 135 °C.

On to `O=C(O)c1ccccc1NCCCN1c2ccccc2CCc2ccc(Cl)cc21`, for which the melting point lay in the range of 176 to 178 °C.

Molecule `N#CC(NC(=O)c1cccn2c(Cl)cnc12)c1ccco1` (stereo not drawn) had a melting point of 142 to 143 °C.

Molecule `C#CCNC1=Nc2ccc(Cl)cc2C(c2ccccc2)=NC1` had a melting point of 202 °C.

In the case of `CC1(COc2ccc(S(=O)(=O)C3SC(=O)NC3=O)cc2)CCCCC1` (stereo not drawn), the melting point lay in the range of 174 to 175 °C.

Molecule `CCC1CCn2c(nc(-c3ccncn3)cc2=O)N1` (stereo not drawn) came in with a melting point of 226 to 228 °C.

For the molecule `Cc1cc(C)c(C2CC(=O)C=C(O)C2)c(C)c1` (stereo not drawn), the melting point was 165 °C.

Molecule `Nc1nccnc1Cc1ccccc1` registered a melting point of 93 to 96 °C.

Turning to `COc1cc2c(=O)cc(C(=O)O)n(C)c2ccc1=O`, the melting point is above 250 °C.

As for `COC(=O)Nc1nc(-c2ccccc2)c(-c2nc3ccccc3c(=O)n2-c2ccccc2Cl)s1`, the melting point was above 275 °C.

The molecule `CC1(C)CC(O)CC(C)(C)N1CC#CCN1C(C)(C)CC(O)CC1(C)C` showed a melting point of 203 °C.

With `Nc1n[nH]c2c1cnc1c(NC(=O)c3c(Cl)cccc3Cl)cccc12`, the melting point is above 300 °C.

In turn, `COC(=O)C1=C(C)NC(CC(=O)N2CCN(C3CC4CCC(C3)N4Cc3ccccc3OC)CC2)=C(C(=O)OC)C1c1c(Cl)cccc1Cl` (stereo not drawn) registered a melting point of 205 to 213 °C.

Regarding `CCCCS(=O)c1ncn(C(=O)N(CCC)CCC)n1` (stereo not drawn), the melting point is 39 to 40 °C.

In turn, `Cc1ccccc1N1CCN(C2CCc3cc(O)ccc3C2)CC1` (stereo not drawn) yielded a melting point of 177 to 179 °C.

For the molecule `O=C(O)CCc1ccc2ccccc2c1Br`, the melting point fell in the range of 116 to 119 °C.

Turning to `O=C(c1ccc(CBr)cc1)c1ccc([N+](=O)[O-])cc1`, the melting point is 113 °C.

The molecule `CC(O)(CCN1C(=O)c2ccccc2C1=O)c1ccc(-c2ccc(Cl)cc2)cc1` (stereo not drawn) had a melting point of 177 to 179 °C.

On to `CCOC(=O)C1CN(C2CC2)c2nc3cc(F)c(F)cc3cc2C1=O` (stereo not drawn), for which the melting point turned out to be 172 °C.

The molecule `COc1cc2c(cc1OC)C1(CCN(CCc3ccc([N+](=O)[O-])cc3)CC1)N(Cc1ccc([N+](=O)[O-])cc1)CC2=O` returned a melting point of 174 to 177 °C.

For the molecule `CC12CCC(=O)C(N=[N+]=[N-])=C1CCC1C2CCC2(C)C(OC3CC3)CCC12` (stereo not drawn), the melting point fell in the range of 104 to 106 °C.

For `O=C1c2cccc3c(N4CCCC4)c(Br)cc(c23)C(=O)N1O`, the melting point is 170 to 172 °C.

In turn, `N#Cc1ccc(-c2ccc(C(F)(F)F)cn2)cc1SCC1CC1` registered a melting point of 135 to 136 °C.

For `CC(Cn1ncc2ccc(O)cc21)O[Si](C)(C)C(C)(C)C` (stereo not drawn), the melting point lay in the range of 169 to 174 °C.

Molecule `Cc1cc(Br)cnc1CCCNc1ncc(Cc2cccnc2)cc1O` yielded a melting point of 141 to 143 °C.

As to `O=C(O)CCN1CCN(c2cccc(C(F)(F)F)c2)CC1`, the melting point fell in the range of 228 to 230 °C.

As to `c1ccc(C(OC2CCN(CCCCNc3ccc4nncn4n3)CC2)c2ccccc2)cc1`, the melting point was 145 to 146 °C.

In turn, `C=C1C(OC(C)=O)C(CO)OC1n1ccc(NC(C)=O)nc1=O` (stereo not drawn) displayed a melting point of 174 to 175 °C.

In turn, `CCC(=O)CC(C(C(=O)CC)c1ccc([N+](=O)[O-])cc1)[N+](=O)[O-]` (stereo not drawn) came in with a melting point of 61.5 to 65.6 °C.

Regarding `CC(=O)Nc1ccc(S(=O)(=O)N2CCCCC2)cc1`, the melting point fell in the range of 137 to 139 °C.

In turn, `CCC(Cl)(CC)CC(=O)c1cc(C(C)(C)C)c(O)c(C(C)(C)C)c1` registered a melting point of 72 °C.

Take `CCN1CSCN(CC)C1=S`: the melting point was 94 to 97 °C.

In the case of `COc1ccc2[nH]cc(CCCNCC3COc4ccccc4O3)c2c1` (stereo not drawn), the melting point fell in the range of 135 to 136 °C.

Regarding `CCCCNS(=O)(=O)CC(=O)[C@@H]1OC(C)(C)N(C(=O)OC(C)(C)C)[C@H]1CC1CCCCC1`, the melting point fell in the range of 70 to 73 °C.

`CCc1nc2c(C)cc(C)nc2n1Cc1ccc(C(Cc2nnn[nH]2)c2ccccc2Cl)cc1` (stereo not drawn) registered a melting point of 217 to 221 °C.

`COc1ccc(S(=O)(=O)Nc2nc(-c3cccc([N+](=O)[O-])c3)cs2)cc1OC` had a melting point of 185 °C.

`O=C(CCCN1CCC(c2noc3cc(F)ccc23)CC1)c1cc2c(s1)C(=O)NCCC2` returned a melting point of 186 to 187 °C.

In turn, `COc1cc(F)c(F)cc1C=O` displayed a melting point of 74 °C.

In turn, `CC(C)n1nc(-c2sc(C(=O)NCCc3ccccn3)nc2-c2ccc(F)cc2)ccc1=O` yielded a melting point of 144 to 145 °C.

For `CC(=O)N(C)Cc1ccc(OCc2ccc(F)cc2)cc1`, the melting point is 82 to 83 °C.

As for `CCOC(=O)[C@H](Cc1ccc(O)cc1)NC(=O)C(C)(C)NC(=O)[C@@H](SC(C)=O)C(C)C`, the melting point is 137 to 138 °C.

Molecule `O=C1CN(c2cc(Oc3ccccc3)ccc2O)S(=O)(=O)N1` yielded a melting point of 153 to 157 °C.

`CC1(C)OC(=O)C(Sc2nccs2)=C1c1ccc(S(C)(=O)=O)cc1` showed a melting point of 174 to 176 °C.

In the case of `CNc1ccc(-c2nc(C(=O)Nc3nccs3)c(-c3cccc(OC)c3)[nH]2)cc1`, the melting point is 248 to 251 °C.

With `CC(=O)OC1CSC(Oc2cccnc2C(=O)N2CCCCC2)C(OC(C)=O)C1OC(C)=O` (stereo not drawn), the melting point fell in the range of 89 to 92 °C.

`O=C(COc1ccccc1)COc1ccccc1` registered a melting point of 55 to 57 °C.

On to `CSc1nc2ccnn2c(NCc2ccccc2)c1C#N`, for which the melting point was 165 °C.

The molecule `CNC(=O)c1cccc(C2C(C(=O)c3ccc(OC)cc3)=C(O)C(=O)N2c2nnc(C)s2)c1` (stereo not drawn) came in with a melting point of 238 °C.

`O=[N+]([O-])c1ccc2sc3ccc(F)cc3c2c1`: the melting point lay in the range of 200 to 202 °C.

On to `N#CCN1C(=O)COc2cc(F)ccc21`, for which the melting point lay in the range of 111 to 113 °C.

`Nc1ccc2ccc(Oc3cccc(F)c3)nc2n1`: the melting point was found to be 165 °C.

As for `COC(=O)c1cn(-c2ccc(F)cc2)c(C=Cc2cccnc2)cc1=O`, the melting point was 201 to 204 °C.

For the molecule `CC1(C)OCC(COc2ccc(-c3ccc4cc(C(=O)O)ccc4c3)cc2C23CC4CC(CC(C4)C2)C3)O1` (stereo not drawn), the melting point was determined as 287 °C.

Turning to `COC(=O)CCc1cc(C(=O)c2ccccc2Cl)c(NC(=O)CBr)s1`, the melting point lay within 104 to 106 °C.

Take `CCOC(=O)C=Cc1ccc(C=Cc2ccc(Br)cc2)cc1`: the melting point came to 167 °C.

Consider `CCOc1ccc(C(=O)c2ccccc2F)c(Cl)c1Cl`, for which the melting point fell in the range of 94 to 95 °C.

Molecule `O=C1Nc2ccc(F)cc2OC1CCO` (stereo not drawn) displayed a melting point of 136 to 138 °C.

In the case of `O=C(Nc1ccc(Cl)cc1)NC1N=C(c2ccccc2)c2ccccc2N(CC(=O)OCc2ccccc2)C1=O` (stereo not drawn), the melting point fell in the range of 220 to 222 °C.

As to `Cc1ccc(S(=O)(=O)OCC2Cc3cc(F)cc(Br)c3O2)cc1` (stereo not drawn), the melting point was 84 to 86 °C.

Take `COC(=O)c1ccc2c(c1)c(=O)[nH]c(=O)n2CCCCN1CCC(OC(c2ccccc2)c2ccccc2)CC1`: the melting point lay in the range of 151 to 153 °C.

`O=C1CCc2c(Br)cc(F)cc21` showed a melting point of 129 to 131 °C.

Turning to `Cn1c(Cl)nc2c3ncc(Cl)cc3ccc21`, the melting point is 211 to 213 °C.
